One data set relates to Huh-7. The experiment in a line: Antiproliferative activity against human Huh-7 cells assessed as inhibition of cell proliferation incubated for 72 hrs by MTT assay. The data set is classed as functional, cell-based. Conditions: Huh-7, 72 h.
Another data set concerns HepG2. Description: Antiproliferative activity against human HepG2 cells assessed as inhibition of cell proliferation incubated for 72 hrs by MTT assay. Type of data set: functional, cell-based. Conditions: HepG2, 72 h.
Another data set concerns SK-HEP1. The experiment in a line: Antiproliferative activity against human SK-HEP1 cells assessed as inhibition of cell proliferation incubated for 72 hrs by MTT assay. Conditions: SK-HEP1, 72 h. Type of data set: functional, cell-based. For orientation: Tetrazolium assays rely on reduction of a dye to a coloured formazan, in cell work by metabolically active cells.
The nature of data set [1]: Aqueous solubility of the compound […] measured after 72 hrs in shaking by HPLC analysis. The data set is classed as physicochemical.
For another data set, the system named is SMMC-7721. The experiment in a line: Antiproliferative activity against human SMMC-7721 cells assessed as inhibition of cell proliferation incubated for 72 hrs by MTT assay. Type of data set: functional, cell-based. Conditions: SMMC-7721, 72 h.
The nature of data set [2]: Antiproliferative activity against human Doxorubicin-resistant SMMC-7721 cell assessed as inhibition of cell proliferation incubated for 72 hrs by MTT assay. Conditions: SMMC-7721, 72 h. Type of data set: functional, cell-based.

Structures are written as SMILES. Values after ≈ are worked out from the molar mass of the structure shown. A value given as a limit tells only on which side of the number the result lay.

By IC50 is commonly meant the point on the concentration scale where inhibition reaches its midpoint. For orientation: thermodynamic solubility means the concentration in solution at equilibrium with solid.

In the case of `O=C(CCN1CCCC1)Oc1ccc2[nH]c3c(c2c1)CCN1C(=O)c2cc(F)cc(F)c2N(c2cccc(F)c2)C31` (stereo not given), the results for the IC50 in the data set with Huh-7, in the data set on HepG2 and in the data set on SK-HEP1 were 40 nM, 80 nM and 30 nM, respectively. The same compound registered a solubility (thermodynamic) at 72 h in data set [1] of 10.1 µg/mL (≈ 18 µM).

Regarding `CNC(=O)c1cc(Oc2ccc(NC(=O)Nc3ccc(Cl)c(C(F)(F)F)c3)cc2)ccn1` [SORAFENIB], the IC50 stood at 3460 nM in the data set with SMMC-7721 and 5120 nM in data set [2].

Turning to `CC(C)(O)COc1ccc2[nH]c3c(c2c1)CCN1C(=O)c2cc(F)cc(F)c2N(c2cccc(F)c2)C31` (stereo not given), the IC50 in the data set with Huh-7 is 530 nM; in the data set on HepG2, 1240 nM; with SK-HEP1 it was 920 nM. Further, in data set [1], the solubility (thermodynamic) at 72 h was 2.5 µg/mL (≈ 4.93 µM).

For the compound `COCCCOc1ccc2[nH]c3c(c2c1)CCN1C(=O)c2cc(F)cc(F)c2N(c2cccc(F)c2)C31` (stereo not given), the IC50 with Huh-7, in the data set on HepG2 and with SK-HEP1 was above 1620 nM in each case. In data set [1], this compound had a solubility (thermodynamic) at 72 h of 71.4 µg/mL (≈ 141 µM).

As for `O=C1c2cc(F)cc(F)c2N(c2cccc(F)c2)C2c3[nH]c4ccc(OCCN5CCCCC5)cc4c3CCN12` (stereo not given), the IC50 in the data set on Huh-7, with HepG2 and in the data set on SK-HEP1 was above 1620 nM each time. Further, the solubility (thermodynamic) at 72 h in data set [1] is 34.3 µg/mL (≈ 62.8 µM).

In the case of `COCCOc1ccc2[nH]c3c(c2c1)CCN1C(=O)c2cc(F)cc(F)c2N(c2cccc(F)c2)C31` (stereo not given), the IC50 is 1530 nM in the data set on Huh-7, 1280 nM in the data set on HepG2 and 1580 nM in the data set with SK-HEP1. In data set [1], the solubility (thermodynamic) at 72 h turned out to be 1.3 µg/mL (≈ 2.63 µM).

On to `O=C(O)COc1ccc2[nH]c3c(c2c1)CCN1C(=O)c2cc(F)cc(F)c2N(c2cccc(F)c2)C31` (stereo not given), for which the IC50 in the data set on Huh-7, with HepG2 and in the data set with SK-HEP1 was above 1620 nM in each case. In addition, the thermodynamic solubility at 72 h in data set [1] was 72.5 µg/mL (≈ 147 µM).

Consider `CN(C)CCC(=O)Oc1ccc2[nH]c3c(c2c1)CCN1C(=O)c2cc(F)cc(F)c2N(c2cccc(F)c2)C31` (stereo not given), for which the IC50 in the data set on Huh-7, in the data set with HepG2 and in the data set with SK-HEP1 was 40 nM throughout. The same compound came in with a thermodynamic solubility at 72 h in data set [1] of 11.8 µg/mL (≈ 22.1 µM).

Turning to `O=C1c2cc(F)cc(F)c2N(c2cccc(F)c2)C2c3[nH]c4ccc(OCCCN5CCCC5)cc4c3CCN12` (stereo not given), the IC50 in the data set on Huh-7, in the data set with HepG2 and in the data set with SK-HEP1 was above 1620 nM throughout. This compound also displayed a thermodynamic solubility at 72 h in data set [1] of 61.1 µg/mL (≈ 112 µM).

For `O=C(Oc1ccc2[nH]c3c(c2c1)CCN1C(=O)c2cc(F)cc(F)c2N(c2cccc(F)c2)C31)N1CCNCC1` (stereo not given), the IC50 with Huh-7, in the data set with HepG2 and in the data set with SK-HEP1 was above 1620 nM in each case. The compound also had a solubility (thermodynamic) at 72 h in data set [1] of 1.5 µg/mL (≈ 2.74 µM).

Turning to `O=C1c2cc(F)cc(F)c2N(c2cccc(F)c2)C2c3[nH]c4ccc(OCCO)cc4c3CCN12` (stereo not given), the IC50 in the data set on Huh-7 was 120 nM; with HepG2, 280 nM; with SK-HEP1, 200 nM. The thermodynamic solubility at 72 h in data set [1] was found to be 9.5 µg/mL (≈ 19.8 µM).

Regarding `COCC(=O)Oc1ccc2[nH]c3c(c2c1)CCN1C(=O)c2cc(F)cc(F)c2N(c2cccc(F)c2)C31` (stereo not given), the IC50 in the data set with Huh-7 is 40 nM; in the data set with HepG2 it was 90 nM; in the data set with SK-HEP1 it was 40 nM. This compound gave a thermodynamic solubility at 72 h in data set [1] of 3 µg/mL (≈ 5.91 µM).

As for `CN(C)C(=O)Oc1ccc2[nH]c3c(c2c1)CCN1C(=O)c2cc(F)cc(F)c2N(c2cccc(F)c2)C31` (stereo not given), the IC50 in the data set with Huh-7, in the data set on HepG2 and in the data set on SK-HEP1 was above 1620 nM in each case. In data set [1], this compound had a thermodynamic solubility at 72 h of 3.1 µg/mL (≈ 6.12 µM).

For `CC(O)COc1ccc2[nH]c3c(c2c1)CCN1C(=O)c2cc(F)cc(F)c2N(c2cccc(F)c2)C31` (stereo not given), the IC50 amounted to 190 nM in the data set on Huh-7, 510 nM with HepG2 and 730 nM in the data set on SK-HEP1. The same compound had a thermodynamic solubility at 72 h in data set [1] of 12.2 µg/mL (≈ 24.7 µM).

For the compound `O=C1c2cc(F)cc(F)c2N(c2cccc(F)c2)C2c3[nH]c4ccc(OCCCN5CCCCC5)cc4c3CCN12` (stereo not given), the IC50 with Huh-7, with HepG2 and in the data set on SK-HEP1 was above 1620 nM each time. In data set [1], this compound showed a solubility (thermodynamic) at 72 h of 100 µg/mL (≈ 179 µM).

Turning to `CN(C)CCOc1ccc2[nH]c3c(c2c1)CCN1C(=O)c2cc(F)cc(F)c2N(c2cccc(F)c2)C31` (stereo not given), the IC50 with Huh-7 worked out at 430 nM; in the data set with HepG2, 800 nM; with SK-HEP1, 1380 nM. Further, the solubility (thermodynamic) at 72 h in data set [1] came to 53 µg/mL (≈ 105 µM).

On to `O=C1c2cc(F)cc(F)c2N(c2cccc(F)c2)C2c3[nH]c4ccc(OCCN5CCNCC5)cc4c3CCN12` (stereo not given), for which the IC50 in the data set with Huh-7, in the data set with HepG2 and in the data set on SK-HEP1 was above 1620 nM throughout. In addition, the solubility (thermodynamic) at 72 h in data set [1] came to 50.5 µg/mL (≈ 92.2 µM).

Take `CN(C)CC(=O)Oc1ccc2[nH]c3c(c2c1)CCN1C(=O)c2cc(F)cc(F)c2N(c2cccc(F)c2)C31` (stereo not given): the IC50 in the data set on Huh-7 stood at 40 nM; in the data set on HepG2, 100 nM; in the data set with SK-HEP1, 30 nM. This compound also gave a thermodynamic solubility at 72 h in data set [1] of 8.7 µg/mL (≈ 16.7 µM).

In the case of `O=C(Oc1ccc2[nH]c3c(c2c1)CCN1C(=O)c2cc(F)cc(F)c2N(c2cccc(F)c2)C31)N1CCC(N2CCCCC2)CC1` (stereo not given), the IC50 in the data set on Huh-7, in the data set with HepG2 and with SK-HEP1 was above 1620 nM in each case. The compound further returned a solubility (thermodynamic) at 72 h in data set [1] of 34.5 µg/mL (≈ 54.8 µM).

With `O=C1c2cc(F)cc(F)c2N(c2cccc(F)c2)C2c3[nH]c4ccc(OCCN5CCOCC5)cc4c3CCN12` (stereo not given), the IC50 in the data set with Huh-7, in the data set with HepG2 and in the data set on SK-HEP1 was above 1620 nM each time. In data set [1], the thermodynamic solubility at 72 h turned out to be 9.5 µg/mL (≈ 17.3 µM).

Regarding `O=C(CO)Oc1ccc2[nH]c3c(c2c1)CCN1C(=O)c2cc(F)cc(F)c2N(c2cccc(F)c2)C31` (stereo not given), the values for the IC50 in the data set with Huh-7, in the data set with HepG2 and with SK-HEP1 were 70 nM, 180 nM and 40 nM, respectively. In addition, the thermodynamic solubility at 72 h in data set [1] was 0.7 µg/mL (≈ 1.42 µM).

`O=C(O)CCC(=O)Oc1ccc2[nH]c3c(c2c1)CCN1C(=O)c2cc(F)cc(F)c2N(c2cccc(F)c2)C31` (stereo not given): the IC50 in the data set with Huh-7 came out at 20 nM; with HepG2, 70 nM; with SK-HEP1 it was 90 nM. This compound also displayed a thermodynamic solubility at 72 h in data set [1] of 6.1 µg/mL (≈ 11.4 µM).

On to `COP(=O)(OC)Oc1ccc2[nH]c3c(c2c1)CCN1C(=O)c2cc(F)cc(F)c2N(c2cccc(F)c2)C31` (stereo not given), for which the IC50 in the data set with Huh-7, with HepG2 and with SK-HEP1 was above 1620 nM each time. The thermodynamic solubility at 72 h in data set [1] is 1.9 µg/mL (≈ 3.5 µM).

Consider `CN1CCN(CCOc2ccc3[nH]c4c(c3c2)CCN2C(=O)c3cc(F)cc(F)c3N(c3cccc(F)c3)C42)CC1` (stereo not given), for which the IC50 in the data set on Huh-7, in the data set with HepG2 and with SK-HEP1 was above 1620 nM throughout. Further, in data set [1], the thermodynamic solubility at 72 h was determined as 103 µg/mL (≈ 183 µM).

Consider `CC[C@@]1(O)C(=O)OCc2c1cc1n(c2=O)Cc2cc3c(CN(C)C)c(O)ccc3nc2-1` [TOPOTECAN], for which the IC50 with Huh-7 worked out at 3750 nM; in the data set with HepG2, 1040 nM; in the data set on SK-HEP1, 1510 nM.

On to `CCN(CC)C(=O)Oc1ccc2[nH]c3c(c2c1)CCN1C(=O)c2cc(F)cc(F)c2N(c2cccc(F)c2)C31` (stereo not given), for which the IC50 in the data set with Huh-7, with HepG2 and in the data set with SK-HEP1 was above 1620 nM each time. In data set [1], the thermodynamic solubility at 72 h stood at 5.5 µg/mL (≈ 10.3 µM).

With `O=C1c2cc(F)cc(F)c2N(c2cccc(F)c2)C2c3[nH]c4ccc(OCCCN5CCOCC5)cc4c3CCN12` (stereo not given), the IC50 in the data set on Huh-7, in the data set on HepG2 and in the data set on SK-HEP1 was above 1620 nM each time. This compound also came in with a solubility (thermodynamic) at 72 h in data set [1] of 11.6 µg/mL (≈ 20.6 µM).
